Results published in patent publication US20250235501A1, “Methods and Compositions for Treating or Preventing Neurological Injury or Neurological Disorders” (University of Connecticut, priority 2024, published 2025).

System: ERK1/2 and CREB activities (pERK1/2, pCREB)
Test: ERK1/2 and CREB activities in cultured neurons (WB)
Format: cell-based, mouse
Conditions: WT neurons pre-incubated with peptide overnight, vs control
Experimental: FIGS. 7F-7H show the effects of TAT-EE3 on ERK1/2 and CREB activities in cultured neurons isolated from gM2KO and nM2KO mice, and WT littermates. WT neurons were treated with TAT-EE3 or TAT-SC for overnight before the experiments. Neurons were incubated for 1 h before experiments with 1) control (PBS), 2) NMDA (10 μM) to activate synaptic and extrasynaptic NMDARs, and 3) 4-AP 2.5 mM plus biccuculine (Bic) 50 μM (4-AP/Bic) to activate synaptic NMDARs. […] FIGS. 7G and 7H show the quantification of the active CERB and ERK1/2 in each group under three different treatment conditions (***, p<0.001; ANOVA, Bonferroni's test; mean±SEM, n=3).
Mice pups at P0 were euthanized based on animal protocol. Whole brain was dissected out immediately and immersed in ice-cold Hank's Balanced Salt Solution (HBSS). Meninges were removed thoroughly, and tissue of different brain areas was taken based on purposes. Brain tissue was cut into small pieces and digested with 0.25% trypsin (Thermal Fisher Scientific, 15090-046) in HBSS at 37° C. for 20 min. Digestion solution was quickly removed, and tissue pellets are washed with Neurobasal® Medium (Thermal Fisher Scientific, 21103-049) for 3 times. Cells were resuspended with appropriate amount of Neurobasal® Medium supplemented with 2% B27® supplement (Thermal Fisher Scientific, 17504-044), 3% horse serum (Thermal Fisher Scientific, 16050114), 0.25% L-glutamine (Thermal Fisher Scientific, 25030-081) and 1% penicillin/streptomycin (Thermal Fisher Scientific, 15140-122). Isolated cells were counted and plated on coverslips pre-coated with poly-L-lysine (Sigma-Aldrich, P4707) at a density about 500×10^3 cells/cm2 for OGD and H2O2 treatment, and 100×10^3 cells/cm2 for current recording. Cytosine arabinoside (Sigma-Aldrich, C1768) was added to maintain a concentration at 1 μM to inhibit the proliferation of non-neuronal cells. 24 h after plating, culture medium was changed to Neurobasal® Medium supplemented with 2% B27® supplement, 0.25% L-glutamine and 1% penicillin/streptomycin. The concentration of Cytosine arabinoside (araC) was increased to 2 μM. Medium was changed every 3 days. OGD and H2O2 treatment was conducted at 7th day of culture, and current recording was conducted at 7th, 10th and 14th day of culture.
NP-40/Triton lysis buffer ([…], 1% Triton™ X-100, 150 mM NaCl, 1 mM EDTA, 50 mM Tris, pH=8.0) containing proteinase inhibitors and phosphatase inhibitors was used to lyse both cultured cells and frozen brain tissue. […] Protein concentration was measured using Pierce™ Rapid Gold BCA Protein Assay Kit.
30-50 μg of total protein was loaded and separated proteins were transferred to Nitrocellulose membranes. […] Band intensity was quantified using ImageJ software and normalized with appropriate loading controls.

[1] = 4-AP 2.5 mM plus bicuculline 50 μM 1 h

TAT-EE3: membrane permeable disrupting peptide, sequence YGRKKRRQRRREEDTDSSEEMLALAEE (SEQ ID NO: 4)
increased: pCREB level after 4-AP/Bic treatment [1] | pERK1/2 level after 4-AP/Bic treatment [1] | pCREB level after NMDA treatment (NMDA 10 μM 1 h) | pERK1/2 level after NMDA treatment (NMDA 10 μM 1 h)
